Among the data in US11007183B2, “Cancer treatments using combinations of PI3K/Akt pathway and ERK inhibitors” (BIOMED VALLEY DISCOVERIES, INC., priority 2013, dated 2021) are IC50 values, retold here.

pIC50: −log10 of the molar value.

This assay relates to parental HCT116 cells. As to the kind of experiment: Combination proliferation assay (Loewe/Bliss). The class given is cell-based. Conditions: Homo sapiens, HCT-116, 2.5% serum, mean of n=4 separate combinations, read-out: IC50 (single agent, derived from combination assay plates). As to the method:
Cells were seeded into triplicate 96-well plates at the densities indicated in Table 11 in McCoy's 5A media containing 2.5% FBS and allowed to adhere overnight prior to addition of test compound or vehicle control. Combinations were tested using either a 10×8 or for the follow-up HCT116 study a 3×1 dose matrix.
Test compounds were incubated with the cells for 72 h at 37° C., 5% CO2 in a humidified atmosphere. CellTiter-Glo® reagent (Promega, Madison, Wis.) was added according to manufacturer's instructions and luminescence detected using the BMG FLUOstar plate reader (BMG Labtech, Ortenberg, Germany). The average media only background value was deducted and the data analysed.
For the 10×8 combination assays the combination interactions across the dose matrix were determined by the Loewe Additivity and Bliss independence models using Chalice™ Combination Analysis Software (Horizon Discovery Group, Cambridge, Mass.) as outlined in the user manual (available at chalice.horizondiscovery.com/chalice-portal/documentation/analyzer/home.jsp). Synergy is determined by comparing the experimentally observed level of inhibition at each combination point with the value expected for additivity, which is derived from the single-agent responses along the edges of the matrix. […]

For the compound `CC(C)Nc1cc(-c2c[nH]c(C(=O)N[C@H](CO)c3cccc(Cl)c3)c2)c(Cl)cn1` [BVD-523], the pIC50 (in general, −log10 of the IC50, conventionally taken in molar units) was 6.89.
